{"source": "patent US10543172B2", "about": "“Econazole composition and methods of treatment therewith” (PARAGON NORDIC AB, priority 2010, dated 2020)", "origin": "cited, not measured here", "system": "dermatophytes and yeasts", "settings": "Liao et al., Yao Xue Xue Bao 28(1):22-7 (1993)", "data": [{"smiles": "Clc1ccc(CO[C@@H](Cn2ccnc2)c2ccc(Cl)cc2Cl)cc1", "note": "[(R)-(−)-econazole]", "values": [{"measurement": "antifungal activity of stereoisomer", "result": "greater antifungal activity"}]}]}
